Assay results from patent publication US20250136581A1, “SUBSTITUTED TRIAZOLE DERIVATIVE, PREPARATION METHOD THEREFOR, PHARMACEUTICAL COMPOSITION THEREOF, AND USE THEREOF” (SHANGHAI SIMR BIOTECHNOLOGY CO., LTD., priority 2021, published 2025).

What was measured:
[1] = target: human α5β3γ2 receptors (α5-GABAA receptor) (Homo sapiens (Human), UniProt P18507+P31644); experiment: 3H-flunitrazepam competition binding, human α5β3γ2 GABAA receptor; settings: HEK293 cell membranes, 1 nM 3H-flunitrazepam; read-out: α5-GABAAR Ki
Method in brief: (§1)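 HEK293 membranes stably expressing each human receptor subtype ([…]) competed against 1 nM 3H-flunitrazepam in Tris buffer, 1 h at room temperature; flumazenil defined the low-signal control. Eight-point 4-fold test-compound dilutions; GF/C filtration and scintillation counting gave IC50 by curve fitting, converted to Ki.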

[2] = target: human α1β3γ2 receptors (Homo sapiens (Human), UniProt P14867+P18507); experiment: 3H-flunitrazepam competition binding, human α1β3γ2 GABAA receptor; settings: HEK293 cell membranes, 1 nM 3H-flunitrazepam; read-out: Ki α1
Method in brief: as §1

[3] = system: human MDR1 P-gp; experiment: MDCKII-MDR1 permeability; assay type: in vitro ADME, canine; settings: dog
Procedure: Brain permeability of compounds was assessed by measuring compound efflux in Madin-Darby canine kidney-II (MDCKII) cells transfected with the human MDR1 gene (Drug metabolism and disposition, 2008, 36(2), 268-275).
The active transport mechanism was mediated by uptake and efflux transporters expressed on MDCKII-MDR1 cells, primarily by overexpressed human MDR1 P-gp.
MDCKII-MDR1 cells were seeded on the polycarbonate microporous membrane of Transwell™ at a density of (0.85 to 5.0)×10^6/cm^2, and used for experiments when the cells reached complete confluence (3 to 5 d). […] At the beginning and end of the experiment, samples were collected from the transport solution side. After incubation for a certain period of time (1.5 hours), samples were also collected from the buffer side, and the concentration was determined by HPLC-MS/MS or scintillation counting.

[4] = Rat pharmacokinetic experiment; assay type: in vivo; settings: rat, po, 3 mg/kg
Procedure: The maximum plasma concentration (Cmax) in the rat pharmacokinetic experiment was used to evaluate the absorption of the compounds in rat in vivo. The experimental compound was dissolved and then orally administered by gavage (p.o.) to male SD rats. The rats were fasted overnight before drug administration, and blood was collected via venipuncture at 0.25, 0.5, 1, 2, 4, and 7 hours post dose. Approximately 100 μL blood was collected for each sample; at the same time, the whole brain was taken and homogenized with 3 times the amount of PBS for analysis. The […] method was used to determine drug concentrations in plasma and brain tissue, and the proportion of compounds entering the brain (B/P) was calculated based on the AUC of the compound. Pharmacokinetic parameters were calculated using Phoenix WinNonlin 7.0. The administration vehicle was 5% CMC-Na aqueous solution.

Cc1nnn(-c2ccc(C(F)F)cc2)c1COc1ccc(N2CC(=O)NC(C)C2)nn1 (stereo not drawn) [Example 6, 4-(6-((1-(4-(Difluoromethyl)phenyl)-4-methyl-1H-1,2,3-triazol-5-yl)methoxy)pyridazin-3-yl)-6-methylpiperazin-2-one]
Ki [1]: 0.91 nM
Ki [2]: 59.8 nM
efflux ratio at 1.5 h ([3]; MDCK-MDR1, pH 7.4, Papp (B-A)/Papp (A-B), read-out: Efflux ratio (ER)): 7.52
Papp A→B at 1.5 h ([3]; MDCK-MDR1, pH 7.4, 37° C., 1.5 hours): 4.16 ×10⁻⁶ cm/s
Kp ([4]; male, SD, brain / plasma, read-out: B/P (proportion of compounds entering the brain)): 0.0015
Cmax ([4]; plasma, male SD rats): 1510 ng/mL
